System: C57BL/6 mice
Experiment: Serum IL-4 and IFNγ after a single i.p. injection
Assay type: in vivo
Protocol: Serum levels of L-4 and IFNγ after a single injection of DB01-1, DB03-4, or DB03-5 are shown. C57BL/6 mice (11-13 weeks old) were given a single i.p. injection of 4.8 nanomoles of the compounds or phosphate buffered saline (PBS)/vehicle control. Serum cytokine levels were measured 2 and 20 hours later by capture ELISA. Bars show means of three mice, with standard deviation. Note that DB01-1 has nearly identical structure to KRN7000 (C24 fatty acid as compared to C26) and has activity that is indistinguishable from KRN7000 in multiple bioassays. We use DB01-1 as a “KRN7000 mimic” because it has been synthesized by our group and is readily available for our studies, and KRN7000 was unavailable due to license restrictions.
A most intriguing property of KRN7000 analogues is that in some cases they may elicit immune responses that are qualitatively different from those that occur following stimulation with the parent compound. […] This selective activation of IL-4 production by NK T cells was proposed to be the basis for the enhanced therapeutic effects of OCH in the EAE model of central nervous system autoimmune disease. We have observed a similar in vivo effect on the nature of the NK T cell response using several of our ceramide-like glycolipids. […] These responses are similar to those seen for DB01-1, an analogue that is structurally almost identical to KRN7000 (C24 fatty acid instead of C26, otherwise identical) and indistinguishable in terms of its activity in our hands. […] This selective IL-4 induction is virtually identical to that reported for the OCH analogue, and thus illustrates the potential for amino substituted analogues of KRN7000 to induce qualitatively different immunomodulatory effects in vivo. The results reported in FIG. 9 were obtained by measuring serum levels of IL-4 and IFNγ after administering a single injection of […], DB03-4, or DB03-5 to C57BL/6 mice. C57BL/6 mice (11-13 weeks old) were given a single i.p. injection of 4.8 nanomoles of the ceramide-like glycolipids or PBS/vehicle control. Serum cytokine levels were measured 2 and 20 hours later by capture ELISA. Bars show means of three mice, with standard deviation.
For experiments involving in vivo treatment of mice with the ceramide-like glycolipids, the ceramide-like glycolipids were administered by i.p. or i.v. injection in 0.2 ml PBS+0.025% Tween-20, or in vehicle alone. A typical dose is about 4-5 nmoles per animal per injection. Representative references for administering an α-galactosyl ceramide to mice by i.p., i.v. or p.o. routes are S. Sharif et al., Activation of natural killer T cells by alpha-galactosylceramide treatment prevents the onset and recurrence of autoimmune Type 1 diabetes, Nat. Med., Sep. 7, 2001, (9):1057-62 and K. Miyamoto et al., A synthetic glycolipid prevents autoimmune encephalomyelitis by inducing TH2 bias of natural killer T cells, Nature. Oct. 4, 2001, 413(6855):5314.

CCCCC/C=C\C/C=C\CCCCCCCCCC(=O)N[C@@H](COC1OC(CO)C(O)C(O)C1O)[C@H](O)[C@H](O)CCCCCCCCCCCCCC (some centres unmarked) [DB03-4]
serum IFNγ response (20 hours after single i.p. injection of 4.8 nanomoles): not seen
serum IL-4 response (two hours after single i.p. injection of 4.8 nanomoles): strong IL-4 response

— US8022043B2, “Ceramide derivatives as modulators of immunity and autoimmunity” (Albert Einstein College of Medicine of Yeshiva University, priority 2004, dated 2011)
